The values that follow come from patent publication US12595449B2, “Integrated system for 3D tissue culture” (Valo Health, Inc., priority 2020, dated 2026).

This experiment concerns human engineered cardiac tissues (human iPSC derived cardiomyocytes co-cultured with human cardiac fibroblasts). Kind of experiment: Drug testing with electrical stimulation of engineered cardiac tissues in the Biowire II 96-well plate (contractile dynamics from polymer wire displacement). To be noted: thapsigargin 50×10^−6 m, n=2; for frequency of tissue beating: constant stimulation frequency 1.5 Hz, day 19, video after 15 min; for tissue contraction and relaxation time: electrical pacing 1.5 Hz, day 19 (after 12 days of electrical stimulation), video after 15 min. The format is cell-based. On the procedure: To generate cardiac tissues, human iPSC derived cardiomyocytes co-cultured with human cardiac fibroblasts were seeded with hydrogel in the 96-well plate device. Tissue compaction in the first seven days was observed (FIG. 7A, FIG. 7B), with dramatic change in the first two days followed by stabilization after day 3. Electrical field stimulation of cardiac tissues was initiated at day 7 and continued for the additional 12 days. […] Thapsigargin (50×10^-6 m), an inhibitor of sarcoplasmic reticulum function in cardiomyocytes, was added in the presence of electrical pacing (1.5 Hz), resulting in a prolonged tissue contraction and relaxation time (FIG. 7H). […] Predominantly ventricular cardiomyocytes (CMs) were derived from the hiPSC line BJ1D, using monolayer differentiation protocols as previously described. At day 21 of differentiation, cardiomyocytes were disassociated into single cells with previously established methods. Briefly, 1 mg mL^-1 of collagenase type II (Worthington, LS004205) in Hank's Balanced Salt Solution was added to the monolayer cardiomyocyte cultures and incubated overnight at room temperature. The disassociated cells were mixed with cardiac fibroblasts (Lonza, NHCF-V) in a 10:1 cell number ratio. The mixed cells were pelleted and remixed in collagen hydrogel at 5.5×10^7 cells mL^-1. The cell-gel mixture was seeded at […] per microwell. A droplet of media was placed on the wall of the well to keep the moisture until gelation was complete. The plate was incubated at 37° C. and 5% CO2 for 10 min followed by media addition. After seeding (day 0), the tissues were cultured for seven days to allow remodeling around the POMaC wires. Bright field images of the tissues were taken daily to monitor tissue morphology. By day 7, the tissues synchronously contracted and deflected the POMaC wire with each contraction. SpectraMax […] 300 Imaging Cytometer was used to image tissues in the well plate to monitor the daily morphology changes of tissues. Nine pictures were taken in each well of the 96-well plate and automatically stitched together to show the entire view of the well. […] Average tissue width and width of the tissue (Tw), attachment site to the polymer sensor were measured using bright field images at the relaxed state. Passive displacement of polymer sensors was assessed in blue channel. […] The final readouts for the total and passive forces were interpolated according to the Tw and custom tip sizes. […] With built-in force sensor and electrodes, tissues were able to be assessed in situ in terms of their contractile dynamics and drug responses. […] The videos were analyzed using the custom MATLAB software. […]

As for `C/C=C(/C)C(=O)O[C@H]1C(C)=C2[C@H]([C@@H]1OC(=O)CCCCCCC)[C@@](C)(OC(C)=O)C[C@H](OC(=O)CCC)[C@@]1(O)[C@H]2OC(=O)[C@@]1(C)O` [Thapsigargin], the “frequency of tissue beating” value is reported as “decreased by half”; the “tissue contraction and relaxation time” value is reported as “prolonged”. Under “listed as thapsigargin”, the “frequency of tissue beating” value is given as “reduced by half”; the “tissue contraction and relaxation time” value is listed as “slowed”.
